From patent publication US20220296613A1, “FOOD-INDEPENDENT DOSING OF CV-10155 TO TREAT GABAA DISORDERS” (priority 2021, published 2022)
Where “and” joins values, the source holds several entries; their conditions need not be identical. Equal values may be shown once.

How the values were obtained:
[1] = Pharmacokinetics of CV-10155 in preclinical rodent studies; conditions: rodent, in vivo, po
[2] = Pharmacokinetics of CV-10155 solid dosage forms in fed or fasted beagle dogs; conditions: for AUC(0-t): AUCLast; for MRT inf: MRTInf; for half-life: T½
[3] = HPMC-AS formulation, 10 mg PO, fed cohort, individual dogs
[4] = HPMC-AS formulation, 10 mg PO, fed cohort, mean of 4 dogs
[5] = HPMC-AS formulation, 10 mg PO, pentagastrin/fasted cohort, individual dogs
[6] = HPMC-AS formulation, 10 mg PO, pentagastrin/fasted cohort, mean of 4 dogs
[7] = HPMC-AS formulation, 30 mg PO, pentagastrin/fasted cohort, individual dogs
[8] = HPMC-AS formulation, 30 mg PO, pentagastrin/fasted cohort, mean of 4 dogs
[9] = male, beagle, dog, plasma, po, 10 mg, HPMC-AS formulation, 10 mg PO, fed cohort, mean of 4 dogs
[10] = male, beagle, dog, plasma, po, 10 mg, HPMC-AS formulation, 10 mg PO, pentagastrin/fasted cohort, mean of 4 dogs
[11] = male, beagle, dog, plasma, po, 10 mg, HPMC-AS formulation, 10 mg PO, fed cohort, individual dogs
[12] = male, beagle, dog, plasma, po, 30 mg, HPMC-AS formulation, 30 mg PO, pentagastrin/fasted cohort, mean of 4 dogs
[13] = male, beagle, dog, plasma, po, 30 mg, HPMC-AS formulation, 30 mg PO, pentagastrin/fasted cohort, individual dogs

## C[C@@]1(O)CC[C@@]2(C)[C@@H](CC[C@@H]3[C@@H]2CC[C@]2(C)[C@@H](C(=O)Cn4cc(C#N)cn4)CC[C@@H]32)C1 [CV-10155, 1-[2-[(3R,5S,8R,9S,10S,13S,14S,17S)-3-hydroxy-3,10,13-trimethyl-1,2,4,5,6,7,8,9,11,12,14,15,16,17-tetradecahydrocyclopenta[a]phenanthren-17-yl]-2-oxoethyl]pyrazole-4-carbonitrile]
[1]; both, 1 mg/kg
  Cmax: 84.4 to 128 ng/mL
  Tmax: 1.5 to 2 h
[1]; both, 3 mg/kg
  AUC(0-inf): 1380 to 3900 ng·h/mL
  Cmax: 270 to 440 ng/mL
  Tmax: 1.25 to 2.5 h
[1]; both, 10 mg/kg
  AUC(0-inf): 6850 to 14700 ng·h/mL
  Cmax: 1160 ng/mL
  Tmax: 1.25 to 2.25 h
[1]; male, 2 mg/kg
  AUC(0-inf): 1320 ng·h/mL
  Cmax: 224 ng/mL
  Tmax: 1.7 h
[1]; male, 5 mg/kg
  AUC(0-inf): 2610 ng·h/mL
  Cmax: 499 ng/mL
  Tmax: 0.83 h
[2]; [3]
  AUCExtr: 23.1% and 21.3% and 22.0% and 23.4%
  AUCInf: 5047 ng·h/mL and 2440 ng·h/mL and 2105 ng·h/mL and 3712 ng·h/mL
  AUCInf/D: 5602 kg·ng·h/mL/mg and 2929 kg·ng·h/mL/mg and 2273 kg·ng·h/mL/mg and 4084 kg·ng·h/mL/mg
  AUCLast: 3882 ng·h/mL and 1919 ng·h/mL and 1641 ng·h/mL and 2845 ng·h/mL
  Cmax: 512 ng/mL and 334 ng/mL and 273 ng/mL and 649 ng/mL
  F: 71.6% and 38.3% and 29.4% and 52.0%
  MRTInf: 14.8 h and 15.0 h and 15.5 h
  T½: 12.5 h and 12.2 h and 15.0 h
[2]; [4]
  AUCExtr: 22.5%
  AUCInf/D: 3722 kg·ng·h/mL/mg
  F: 47.8%
[2]; [5]
  AUCExtr: 20.4% and 14.1% and 47.1% and 17.9%
  AUCInf: 2465 ng·h/mL and 2612 ng·h/mL
  AUCInf/D: 2762 kg·ng·h/mL/mg and 2441 kg·ng·h/mL/mg and 3314 kg·ng·h/mL/mg and 2821 kg·ng·h/mL/mg
  AUCLast: 2118 ng·h/mL and 1754 ng·h/mL and 2145 ng·h/mL
  Cmax: 340 ng/mL and 183 ng/mL and 217 ng/mL
  F: 36.5% and 34.8% and 29.1% and 38.5%
  MRTInf: 14.8 h and 11.6 h and 33.6 h and 13.6 h
  Tmax: 1 h
  T½: 11.1 h and 8.84 h and 25.7 h and 9.66 h
[2]; [6]
  AUCExtr: 24.8%
  AUCInf/D: 2834 kg·ng·h/mL/mg
  F: 34.7%
[2]; [7]
  AUCExtr: 30.3% and 27.1% and 19.4% and 24.4%
  AUCInf: 12588 ng·h/mL and 8620 ng·h/mL and 4072 ng·h/mL and 7783 ng·h/mL
  AUCInf/D: 4995 kg·ng·h/mL/mg and 3157 kg·ng·h/mL/mg and 1572 kg·ng·h/mL/mg and 2982 kg·ng·h/mL/mg
  AUCLast: 8769 ng·h/mL and 6285 ng·h/mL and 3281 ng·h/mL and 5884 ng·h/mL
  Cmax: 1440 ng/mL and 954 ng/mL and 302 ng/mL and 993 ng/mL
  F: 57.8% and 38.3% and 21.1% and 37.5%
  MRTInf: 18.1 h and 14.4 h and 16.2 h
  T½: 13.6 h and 9.98 h and 12.3 h
[2]; [8]
  AUCExtr: 25.3%
  AUCInf/D: 3177 kg·ng·h/mL/mg
  F: 38.6%
[2]; male, beagle, dog, in vivo, po, 10 mg
  AUC(0-inf): 3310 ng·h/mL
[2]; male, beagle, dog, plasma, po, 10 mg, AUCInf, HPMC-AS formulation, 10 mg PO, fed cohort, mean of 4 dogs
  AUC(0-inf): 3330 ng·h/mL
[2]; male, beagle, dog, plasma, po, 10 mg, AUCInf, HPMC-AS formulation, 10 mg PO, pentagastrin/fasted cohort, individual dogs
  AUC(0-inf): 2630 ng·h/mL
[2]; male, beagle, dog, plasma, po, 10 mg, AUCInf, HPMC-AS formulation, 10 mg PO, pentagastrin/fasted cohort, mean of 4 dogs
  AUC(0-inf): 2760 ng·h/mL
[2]; [9]
  AUC(0-t): 2570 ng·h/mL
  MRT inf: 15.3 h
  half-life: 13.1 h
[2]; male, beagle, dog, plasma, po, 10 mg, HPMC-AS formulation, 10 mg PO, pentagastrin/fasted cohort, individual dogs
  AUC(0-t): 2090 ng·h/mL
[2]; [10]
  AUC(0-t): 2030 ng·h/mL
  MRT inf: 18.4 h
  half-life: 13.8 h
[2]; male, beagle, dog, plasma, po, 10 mg, Cmax, HPMC-AS formulation, 10 mg PO, fed cohort, mean of 4 dogs
  Cmax: 442 ng/mL
[2]; male, beagle, dog, plasma, po, 10 mg, Cmax, HPMC-AS formulation, 10 mg PO, pentagastrin/fasted cohort, individual dogs
  Cmax: 222 ng/mL
[2]; male, beagle, dog, plasma, po, 10 mg, Cmax, HPMC-AS formulation, 10 mg PO, pentagastrin/fasted cohort, mean of 4 dogs
  Cmax: 241 ng/mL
[2]; [11]
  MRT inf: 15.7 h
  half-life: 12.6 h
[2]; male, beagle, dog, plasma, po, 10 mg, Tmax, HPMC-AS formulation, 10 mg PO, fed cohort, mean of 4 dogs
  Tmax: 1.13 h
[2]; male, beagle, dog, plasma, po, 10 mg, Tmax, HPMC-AS formulation, 10 mg PO, pentagastrin/fasted cohort, individual dogs
  Tmax: 2 h
[2]; male, beagle, dog, plasma, po, 10 mg, Tmax, HPMC-AS formulation, 10 mg PO, pentagastrin/fasted cohort, mean of 4 dogs
  Tmax: 1.5 h
[2]; male, beagle, dog, plasma, po, 30 mg, AUCInf, HPMC-AS formulation, 30 mg PO, pentagastrin/fasted cohort, mean of 4 dogs
  AUC(0-inf): 8270 ng·h/mL
[2]; [12]
  AUC(0-t): 6060 ng·h/mL
  MRT inf: 17.2 h
  half-life: 13.4 h
[2]; male, beagle, dog, plasma, po, 30 mg, Cmax, HPMC-AS formulation, 30 mg PO, pentagastrin/fasted cohort, mean of 4 dogs
  Cmax: 922 ng/mL
[2]; [13]
  MRT inf: 20 h
  half-life: 17.8 h
[2]; male, beagle, dog, plasma, po, 30 mg, Tmax, HPMC-AS formulation, 30 mg PO, pentagastrin/fasted cohort, mean of 4 dogs
  Tmax: 1 h
